pIC50: −log10 of the molar value. Where two headings read alike, the source gives them in different places.
Tests used:
ovine COX-1 = molecular target: T1, ovine COX-1 (Ovis aries, UniProt P05979); test: COX-1 inhibition, ELISA kit; format: biochemical; conditions: average of three determinations
T1 construct: purchased Cayman Chemical Item No. 560131
T1 sequence (P05979 25-600): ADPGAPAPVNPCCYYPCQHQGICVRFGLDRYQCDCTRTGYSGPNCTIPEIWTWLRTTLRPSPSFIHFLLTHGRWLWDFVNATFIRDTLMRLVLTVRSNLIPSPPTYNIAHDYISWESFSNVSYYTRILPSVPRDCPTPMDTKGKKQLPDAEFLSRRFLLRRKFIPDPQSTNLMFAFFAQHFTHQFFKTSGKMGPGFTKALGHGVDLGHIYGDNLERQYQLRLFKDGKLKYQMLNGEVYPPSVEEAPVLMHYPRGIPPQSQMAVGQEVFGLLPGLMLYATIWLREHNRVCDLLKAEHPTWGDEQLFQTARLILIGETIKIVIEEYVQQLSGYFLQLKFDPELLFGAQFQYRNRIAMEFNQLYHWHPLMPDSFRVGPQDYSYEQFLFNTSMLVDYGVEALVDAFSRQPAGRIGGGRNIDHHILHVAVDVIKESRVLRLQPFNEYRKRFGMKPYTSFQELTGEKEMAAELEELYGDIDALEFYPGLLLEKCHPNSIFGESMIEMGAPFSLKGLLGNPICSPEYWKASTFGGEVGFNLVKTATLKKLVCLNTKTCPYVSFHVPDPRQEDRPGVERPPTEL
Description: (§1) The compounds’ abilities were evaluated in vitro to inhibit ovine COX-1 and human recombinant COX-2 isozymes using ELISA [46].

human recombinant COX-2 = molecular target: T2, human recombinant COX-2 (Homo sapiens, UniProt P35354); test: COX-2 inhibition, ELISA kit; format: biochemical
T2 construct: purchased Cayman Chemical Item No. 560131
T2 sequence (P35354 18-604): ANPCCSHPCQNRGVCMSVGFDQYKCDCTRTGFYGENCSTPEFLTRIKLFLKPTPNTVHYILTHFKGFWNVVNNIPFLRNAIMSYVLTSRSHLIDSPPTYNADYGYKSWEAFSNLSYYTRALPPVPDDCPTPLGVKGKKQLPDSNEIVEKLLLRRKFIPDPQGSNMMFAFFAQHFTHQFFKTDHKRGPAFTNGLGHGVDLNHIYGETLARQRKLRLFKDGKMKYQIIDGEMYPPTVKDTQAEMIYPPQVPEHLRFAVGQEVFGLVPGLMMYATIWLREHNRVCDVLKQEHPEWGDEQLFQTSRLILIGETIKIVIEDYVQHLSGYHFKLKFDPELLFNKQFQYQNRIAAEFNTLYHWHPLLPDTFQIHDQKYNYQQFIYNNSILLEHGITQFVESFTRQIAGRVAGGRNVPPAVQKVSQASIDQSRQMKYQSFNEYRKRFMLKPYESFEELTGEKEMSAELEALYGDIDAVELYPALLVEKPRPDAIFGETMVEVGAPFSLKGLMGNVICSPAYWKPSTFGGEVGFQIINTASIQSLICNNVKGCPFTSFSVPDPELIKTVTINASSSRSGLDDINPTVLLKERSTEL
Description: as §1

COX-1 = test: Western blotting of COX-1
fibroblast cells = test: MTT test, cytotoxicity; format: cell-based; conditions: 24 h, read-out: IC50 against fibroblast cells
Description: The cytotoxicity of the IA was investigated during 24 h at various concentrations against fibroblast cell lines using the MTT test. […].
The MTT Reagent was purchased from Biospes (Biospes, China, Cat n#BAR1005-1), and used according to the manufacturer’s instructions. Twenty-four hours prior to the MTT experiment, breast cancer cell lines (MCF-7 Cell Line) were seeded at a concentration of 5 × 10^4 cells per well in 96-well microplates to facilitate microplate adherence. Various agent concentrations were administered to the cultured cells. The cells were treated with 10 μL of MTT solution, and 100 μL of serum-free medium was added to every well. The plate was kept at 37 °C for 4 h in a CO2 incubator. Then, each well received 100 μL of formazan diluent buffer. The plate was incubated at 37 °C for the entire night after being wrapped in foil and given a 15-min orbital shake. An ELISA plate reader (Stat Fax 2200, Awareness Technologies, Palm City, FL, USA) was used to measure color absorbance in the OD range of 450–630 nm.
For every sample, the mean of the three readings was computed. Cell survival was calculated at the very end using the following equation:(1) % of cell viability= Asample/Acontrol×100
Acontrol is the absorbance of the cell culture after treatment with formazan buffer and MTT without added any drug. […]

[1] = Solubility in different solvents; format: physicochemical; conditions: qualitative

| SMILES | pIC50 (ovine COX-1) | COX-2 S.I. (human recombinant COX-2; Selectivity index (COX-1 IC50/COX-2 IC50)) | pIC50 (human recombinant COX-2; average of three determinations) | pIC50 (COX-1) | pIC50 (fibroblast cells; MTT test) | Solubility in solvents [1] | melting point [°C] | pIC50 (fibroblast cells) |
| --- | --- | --- | --- | --- | --- | --- | --- | --- |
| CC(=O)CC(C)=NNC(=O)C(C)c1ccc(CC(C)C)cc1 (stereo not drawn) [IA, (E)-2-(4-isobutylphenyl)-N′-(4-oxopentan-2-ylidene) propane hydrazide] | 4.99 | 2.8 | 5.44 | 6.02 | 5.46 | soluble in alcohols, DMSO, and DMF | 135 | – |
| CC(C)Cc1ccc(C(C)C(=O)O)cc1 (stereo not drawn) [Ibuprofen, reference compound] | – | – | – | […] | – | – | – | 4.50 |
